Where a SMILES comes first, the peptide text is derived from it. Bridges are numbered along the chain shown (N, C = ends).

A short description of the data set: Determination of the protein binding (90% serum, 30 kDa filter, HPLC). Format: in vitro ADME. Particulars: serum. As for the experimental part:
Protein binding assays were performed as follows. The purified peptides were mixed with 90% serum and centrifuged through a 30 kDa filter. The ultra-filtrate and the non filtrated serum samples were quantified by HPLC measurements and the protein binding was subsequently calculated.
By fraction unbound is commonly meant free concentration divided by total concentration. Low values mean little free substance, high ones much free substance. On to `CC(C)[C@@H]1NC(=O)[C@H](CCCNC(=N)N)NC(=O)[C@H](C)NC(=O)CNC(=O)[C@H](CC(N)=O)NC(=O)[C@H](CCCNC(=N)N)NC(=O)[C@H](Cc2ccc(O)cc2)NC(=O)[C@H](C(C)C)NC(=O)[C@@H]2CSSC[C@H](NC1=O)C(=O)N[C@@H](Cc1c[nH]cn1)C(=O)N[C@@H](CCCNC(=N)N)C(=O)N[C@@H](CCCNC(=N)N)C(=O)N[C@H](C(=O)N[C@@H](CC(N)=O)C(=O)O)CSSC[C@H](NC(=O)[C@H](Cc1ccccc1)NC(=O)CN)C(=O)N[C@@H](Cc1c[nH]c3ccccc13)C(=O)N[C@@H](CC(N)=O)C(=O)N[C@@H](C(C)C)C(=O)N2` [compound 235] (H-GFCWNVCVYRNGARVCHRRCN-OH; disulfide 3-20, 7-16 (inferred); N-terminus and C-terminus assumed), for which the fraction unbound is 0.36. The same measure for `CC(C)[C@@H]1NC(=O)CNC(=O)[C@H](CC(N)=O)NC(=O)[C@H](CCCNC(=N)N)NC(=O)[C@H](CCCNC(=N)N)NC(=O)[C@H](C(C)C)NC(=O)[C@@H]2CSSC[C@H](NC(=O)[C@H](C(C)C)NC(=O)[C@H](CCCNC(=N)N)NC1=O)C(=O)N[C@@H](Cc1c[nH]cn1)C(=O)N[C@@H](CCCNC(=N)N)C(=O)N[C@@H](CCCNC(=N)N)C(=O)N[C@H](C(=O)N[C@@H](CC(N)=O)C(=O)O)CSSC[C@H](NC(=O)[C@H](Cc1ccccc1)NC(=O)CN)C(=O)N[C@@H](Cc1c[nH]c3ccccc13)C(=O)N[C@@H](CC(N)=O)C(=O)N[C@@H](C(C)C)C(=O)N2` [compound 308] (H-GFCWNVCVRRNGVRVCHRRCN-OH; disulfide 3-20, 7-16 (inferred); N-terminus and C-terminus assumed): 0.06. `CC(C)[C@@H]1NC(=O)[C@@H]2CSSC[C@H](NC(=O)[C@H](CO)NC(=O)[C@H](CCCNC(=N)N)NC(=O)[C@H](CCCCN)NC(=O)CNC(=O)[C@H](CC(N)=O)NC(=O)[C@H](CO)NC(=O)[C@H](Cc3ccc(O)cc3)NC1=O)C(=O)N[C@@H](Cc1c[nH]cn1)C(=O)N[C@@H](CCCNC(=N)N)C(=O)N[C@@H](CCCNC(=N)N)C(=O)N[C@H](C(=O)N[C@@H](CC(N)=O)C(=O)O)CSSC[C@H](NC(=O)[C@H](Cc1ccccc1)NC(=O)CN)C(=O)N[C@@H](Cc1c[nH]c3ccccc13)C(=O)N[C@@H](CCCNC(=N)N)C(=O)N[C@@H](C(C)C)C(=O)N2` [compound 509] (H-GFCWRVCVYSNGKRSCHRRCN-OH; disulfide 3-20, 7-16 (inferred); N-terminus and C-terminus assumed) showed a fraction unbound of 0.13.

In turn, `CC(C)[C@@H]1NC(=O)[C@H](CCCNC(=N)N)NC(=O)[C@H](CCCNC(=N)N)NC(=O)CNC(=O)[C@H](CC(N)=O)NC(=O)[C@H](CCCNC(=N)N)NC(=O)[C@H](Cc2ccc(O)cc2)NC(=O)[C@H](C(C)C)NC(=O)[C@@H]2CSSC[C@H](NC1=O)C(=O)N[C@@H](Cc1c[nH]cn1)C(=O)N[C@@H](CCCNC(=N)N)C(=O)N[C@@H](CCCNC(=N)N)C(=O)N[C@H](C(=O)N[C@@H](CC(N)=O)C(=O)O)CSSC[C@H](NC(=O)[C@H](Cc1ccccc1)NC(=O)CN)C(=O)N[C@@H](Cc1c[nH]c3ccccc13)C(=O)N[C@@H](CC(N)=O)C(=O)N[C@@H](C(C)C)C(=O)N2` [compound 239] (H-GFCWNVCVYRNGRRVCHRRCN-OH; disulfide 3-20, 7-16 (inferred); N-terminus and C-terminus assumed) showed a free fraction (fraction unbound) of 0.35. The same measure for `CC(C)[C@@H]1NC(=O)CNC(=O)[C@H](CC(N)=O)NC(=O)[C@H](CCCNC(=N)N)NC(=O)[C@H](Cc2ccc(O)cc2)NC(=O)[C@H](C(C)C)NC(=O)[C@@H]2CSSC[C@H](NC(=O)[C@H](C(C)C)NC(=O)[C@H](CCCNC(=N)N)NC1=O)C(=O)N[C@@H](Cc1ccc(O)cc1)C(=O)N[C@@H](CCCNC(=N)N)C(=O)N[C@@H](CCCNC(=N)N)C(=O)N[C@H](C(=O)N[C@@H](CC(N)=O)C(=O)O)CSSC[C@H](NC(=O)[C@H](C)NC(=O)CN)C(=O)N[C@@H](Cc1c[nH]c3ccccc13)C(=O)N[C@@H](Cc1ccc(O)cc1)C(=O)N[C@@H](C(C)C)C(=O)N2` [compound 3] (H-GACWYVCVYRNGVRVCYRRCN-OH; disulfide 3-20, 7-16 (inferred); N-terminus and C-terminus assumed): 0.14; for `CC(C)[C@@H]1NC(=O)CNC(=O)[C@H](CC(N)=O)NC(=O)[C@H](CCCNC(=N)N)NC(=O)[C@H](Cc2ccc(O)cc2)NC(=O)[C@H](C(C)C)NC(=O)[C@@H]2CSSC[C@H](NC(=O)[C@H](Cc3c[nH]cn3)NC(=O)[C@H](CCCNC(=N)N)NC1=O)C(=O)N[C@@H](Cc1ccc(O)cc1)C(=O)N[C@@H](CCCNC(=N)N)C(=O)N[C@@H](CCCNC(=N)N)C(=O)N[C@H](C(=O)N[C@@H](CC(N)=O)C(=O)O)CSSC[C@H](NC(=O)[C@H](Cc1ccccc1)NC(=O)CN)C(=O)N[C@@H](Cc1c[nH]c3ccccc13)C(=O)N[C@@H](Cc1ccc(O)cc1)C(=O)N[C@@H](C(C)C)C(=O)N2` [compound 39] (H-GFCWYVCVYRNGVRHCYRRCN-OH; disulfide 3-20, 7-16 (inferred); N-terminus and C-terminus assumed): 0.02. The result for `CC(C)[C@@H]1NC(=O)CNC(=O)[C@H](CC(N)=O)NC(=O)[C@H](CCCNC(=N)N)NC(=O)[C@H](Cc2ccc(O)cc2)NC(=O)[C@H](C(C)C)NC(=O)[C@@H]2CSSC[C@H](NC(=O)[C@H](C(C)C)NC(=O)[C@H](CCCNC(=N)N)NC1=O)C(=O)N[C@@H](Cc1c[nH]cn1)C(=O)N[C@@H](CCCNC(=N)N)C(=O)N[C@@H](CCCNC(=N)N)C(=O)N[C@H](C(=O)N[C@@H](CC(N)=O)C(=O)O)CSSC[C@H](NC(=O)[C@H](Cc1ccccc1)NC(=O)CN)C(=O)N[C@@H](Cc1c[nH]c3ccccc13)C(=O)N[C@@H](CC(N)=O)C(=O)N[C@@H](Cc1ccccc1)C(=O)N2` [compound 260] (H-GFCWNFCVYRNGVRVCHRRCN-OH; disulfide 3-20, 7-16 (inferred); N-terminus and C-terminus assumed) reads 0.16; that for `CC(C)[C@@H]1NC(=O)[C@@H]2CSSC[C@H](NC(=O)[C@H](C)NC(=O)[C@H](CCCNC(=N)N)NC(=O)[C@H](CCCCN)NC(=O)CNC(=O)[C@H](CC(N)=O)NC(=O)[C@H](CCCCN)NC(=O)[C@H](Cc3ccc(O)cc3)NC1=O)C(=O)N[C@@H](Cc1ccc(O)cc1)C(=O)N[C@@H](CCCNC(=N)N)C(=O)N[C@@H](CCCNC(=N)N)C(=O)N[C@H](C(=O)N[C@@H](CC(N)=O)C(=O)O)CSSC[C@H](NC(=O)[C@H](Cc1ccccc1)NC(=O)CN)C(=O)NCC(=O)N[C@@H](CCCNC(=N)N)C(=O)N[C@@H](C(C)C)C(=O)N2` [compound 493] (H-GFCGRVCVYKNGKRACYRRCN-OH; disulfide 3-20, 7-16 (inferred); N-terminus and C-terminus assumed), 0.23.

`CC(C)[C@@H]1NC(=O)CNC(=O)[C@H](CC(N)=O)NC(=O)[C@H](CCCNC(=N)N)NC(=O)[C@H](Cc2ccc(O)cc2)NC(=O)[C@H](CO)NC(=O)[C@@H]2CSSC[C@H](NC(=O)[C@H](CCCCN)NC(=O)[C@H](CCCNC(=N)N)NC1=O)C(=O)N[C@@H](Cc1ccc(O)cc1)C(=O)N[C@@H](CCCNC(=N)N)C(=O)N[C@@H](CCCNC(=N)N)C(=O)N[C@H](C(=O)N[C@@H](CC(N)=O)C(=O)O)CSSC[C@H](NC(=O)[C@H](Cc1ccccc1)NC(=O)CN)C(=O)N[C@@H](Cc1c[nH]c3ccccc13)C(=O)N[C@@H](CCCNC(=N)N)C(=O)N[C@@H](C(C)C)C(=O)N2` [compound 331] (H-GFCWRVCSYRNGVRKCYRRCN-OH; disulfide 3-20, 7-16 (inferred); N-terminus and C-terminus assumed) showed a fraction unbound of 0.05. The same measure for `CC(C)[C@@H]1NC(=O)CNC(=O)[C@H](CC(N)=O)NC(=O)[C@H](CCCNC(=N)N)NC(=O)[C@H](CCCNC(=N)N)NC(=O)[C@H](C(C)C)NC(=O)[C@@H]2CSSC[C@H](NC(=O)[C@H](C(C)C)NC(=O)[C@H](CCCNC(=N)N)NC1=O)C(=O)N[C@@H](Cc1c[nH]cn1)C(=O)N[C@@H](CCCNC(=N)N)C(=O)N[C@@H](CCCNC(=N)N)C(=O)N[C@H](C(=O)N[C@@H](CC(N)=O)C(=O)O)CSSC[C@H](NC(=O)[C@H](Cc1ccccc1)NC(=O)CN)C(=O)N[C@@H](Cc1c[nH]c3ccccc13)C(=O)N[C@@H](CCCNC(=N)N)C(=O)N[C@@H](C(C)C)C(=O)N2` [compound 335] (H-GFCWRVCVRRNGVRVCHRRCN-OH; disulfide 3-20, 7-16 (inferred); N-terminus and C-terminus assumed): 0.05; for `CC(C)[C@@H]1NC(=O)CNC(=O)[C@H](CC(N)=O)NC(=O)[C@H](CCCNC(=N)N)NC(=O)[C@H](Cc2ccc(O)cc2)NC(=O)[C@H](C(C)C)NC(=O)[C@@H]2CSSC[C@H](NC(=O)[C@H](C(C)C)NC(=O)[C@H](CCCNC(=N)N)NC1=O)C(=O)N[C@@H](Cc1c[nH]cn1)C(=O)N[C@@H](CCCNC(=N)N)C(=O)N[C@@H](CCCNC(=N)N)C(=O)N[C@H](C(=O)N[C@@H](CC(N)=O)C(=O)O)CSSC[C@H](NC(=O)[C@H](Cc1ccccc1)NC(=O)CN)C(=O)N[C@@H](Cc1c[nH]c3ccccc13)C(=O)N[C@@H](CC(N)=O)C(=O)N[C@@H](C(C)C)C(=O)N2` [compound 70] (H-GFCWNVCVYRNGVRVCHRRCN-OH; disulfide 3-20, 7-16 (inferred); N-terminus and C-terminus assumed): 0.21. The result for `CC(C)[C@@H]1NC(=O)CNC(=O)[C@H](CC(N)=O)NC(=O)[C@H](CCCCN)NC(=O)[C@H](Cc2ccc(O)cc2)NC(=O)[C@H](C(C)C)NC(=O)[C@@H]2CSSC[C@H](NC(=O)[C@H](C(C)C)NC(=O)[C@H](CCCNC(=N)N)NC1=O)C(=O)N[C@@H](Cc1c[nH]cn1)C(=O)N[C@@H](CCCNC(=N)N)C(=O)N[C@@H](CCCNC(=N)N)C(=O)N[C@H](C(=O)N[C@@H](CC(N)=O)C(=O)O)CSSC[C@H](NC(=O)[C@H](Cc1ccccc1)NC(=O)CN)C(=O)N[C@@H](Cc1c[nH]c3ccccc13)C(=O)N[C@@H](Cc1ccc(O)cc1)C(=O)N[C@@H](C(C)C)C(=O)N2` [compound 89] (H-GFCWYVCVYKNGVRVCHRRCN-OH; disulfide 3-20, 7-16 (inferred); N-terminus and C-terminus assumed) reads 0.1.

Source of the values: patent US20160158317A1, “Antimicrobial Peptide Variants and Polynucleotides Encoding Same” (Adenium Biotech A/S, priority 2010, published 2016).
